{"source": "patent US20210038545A1", "about": "(priority 2018, published 2021)", "test_system": "S. pneumoniae", "conditions": "mice colonized with IAV (H1N1, 7 dpi) microbiota; acetate five days before 1×10^6 CFUs; vs vehicle-treated transplanted animals; FIG. 4A", "data": [{"smiles": "CC(=O)O", "note": "[acetate]", "values": [{"measurement": "resistance to S. pneumoniae challenge", "result": "more resistant"}]}]}
